# Assay results: patent US20090221095A1, “Colorimetric Screening of DNA Binding/Intercalating Agents with Gold Nanoparticle Probes” (NORTHWESTERN UNIVERSITY, priority 2005, published 2009)
# Tests used:
# [1] = test system: triplex DNA on chip surface; test: Chip-based scanometric detection of triplex DNA binders (silver enhancement); assay type: binding; details: 0.3 M NaCl, binder 5 μM, DNA-3 150 nM
# Method: For scanometric detection of duplex or triplex DNA binding molecules, Au nanoparticles (1 nM) and DNA binding molecules (5 μM) in 10 mM PBS buffer of varying NaCl concentrations were added to the microarray slide under hybridization wells (Nanosphere, Inc.). For detection of triplex binders, 150 nM DNA-3 was added. DNA hybridization proceeded for 30 min (for duplex DNA binders) or 1 h (for triplex DNA binders) in a humidity chamber. After hybridization, the slides were washed three times with 0.5 M NaNO3 containing 0.02% Tween 20. The arrays were dried using a benchtop spinner. Silver enhancement solution (Nanosphere, Inc.) was added for Au-NP signal amplification (1 mL total volume/array, 1.5-min development time for duplex DNA binding molecules and 3 min for triplex binding molecules). The reaction was terminated by washing the slides with NANOpure® water and spin-drying. Light-scattering images from the silver-enhanced chips were recorded using the high-resolution Verigene ID system (Nanosphere, Inc.).
# Capture strands of synthetic oligonucleotides are patterned on a glass chip using a microarrayer. The DNA chip is then exposed to a solution containing three components: 1) complementary DNA (no nanoparticles), 2) DNA functionalized Au nanoparticles (DNA is non-complementary to the arrayed DNA) and 3) DNA binders, Scheme 4. The complementary solution-phase DNA, called DNA-3 in Scheme 2, hybridizes to the DNA on the chip surface and forms a duplex. The Au nanoparticle-bound DNA has the correct sequence to form a triplex with the surface bound duplex through sequence-specific Hoogsteen, or reverse Hoogsteen, base pairing. The triplex structure is relatively unstable at room temperature and will only form in the presence of triplex DNA binding molecules. The presence of the triplex DNA binding molecules increase the stability of the triplex, immobilizing the Au nanoparticles on the chip surface. The chip was then exposed to silver enhancement solution for further signal enhancement and then imaged using a Verigene ID scanner.
# The assay was performed in the presence of two triplex binders, coralyn (CORA) and benzo[e]pyridoindole (BePI), seven duplex DNA binders, 4′,6-diamidino-2-phenylindole (DAPI), ellipticine (EIPT), amsacrine (AMSA), daunorubicin (DNR), anthraquinone-2-carboxylic acid (AQ2A), ethidium bromide (EB), and 9-aminoacridine (9-AA))., and one control (no DNA-3). Similar to the DNA duplex, the formation of the DNA triplex is a reversible process which is affected by both temperature and salt concentration. However, compared to the duplex, the stability of the triplex is much more sensitive to salt concentration. Therefore, to determine the relative binding strength of the triplex DNA binders, the assay was performed at varying salt concentrations, FIG. 7. At 0.3 M NaCl, both the strong (BePI) and weaker (CORA) triplex binders show signal.
# [2] = test system: triplex DNA (DNA-1, DNA-2, DNA-3); test: UV melting (260 nm) of unmodified triplex DNA-1, DNA-2, DNA-3 (no nanoparticles); assay type: binding; details: solution-phase unmodified DNA, 1 μM each strand, 6 μM binder, 0.5 M NaCl 10 mM PBS
# Method: To compare the results from the previous examples with more traditional screening techniques, all eight intercalators were screened, plus a control, by monitoring UV absorbance melting curves (260 nm) of unmodified DNA-1, DNA-2, and DNA-3 (1 μM each), with each intercalator (10 μM), (DNA-1; 3′ TTCTTCTTTTTT CT-5′. DNA-2: 5′-TTCTTCTTTTTTCT-3′, DNA-3: 5′-AAGAAGAAAAAA-3′). (FIG. 2B). The melting experiment performed in the presence of BePl has two melting transitions. The first Tm at 34.8° C. is associated with the denaturation of the triplex structure and the second Tm at 61.4° C. is representative of the corresponding duplex.
# To determine the Tm of the duplex DNA in the presence of DNA binders, 2 μM duplex DNA and 5 μM DNA binder were combined in 0.3 M NaCl 10 mM PBS. To determine the Tm of the triplex DNA in the presence of DNA binders, 1 μM of each strand and 6 μM of each DNA binder were combined in 0.5 M NaCl 10 mM PBS. UV-vis melting curves were measured on a CARRY 500 spectrophotometer equipped with a circulating bath. The melting process was monitored by measuring the change in extinction at 260 nm. The solutions were stirred continuously with a magnetic stir bar as the solution temperature was increased at a rate of 0.5° C./min. The first derivative generated from the melting curves was used to determine the Tm.
# A melting transition associated with the triple helix was found only for experiments performed in the presence of BePI (34.8° C.) and CORA (17.1° C.) where BePI is determined to be the stronger binder. This is in agreement with the results determined by the chip-based scanometric method described above.
smiles,measurement,setting,value
"COc1cc2cc3c4cc(OC)c(OC)cc4cc[n+]3c(C)c2cc1OC [CORA, coralyn]",scanometric signal,[1],show signal
same,Tm 2-1,[2]; duplex melting transition,60.1 °C
same,Tm3-2,"[2]; triple helix melting transition, ND read as not detected",17.1 °C
